# Test results taken from patent US20260137697A1, “THIAZOLO[5,4-D]PYRIMIDINE COMPOUNDS, COMPOSITIONS COMPRISING THEM AND USES THEREOF” (University de Montreal, priority 2022, published 2026).
# Where two headings read alike, the source gives them in different places.
# How the values were obtained:
# Assay type in all cases: cell-based, human
# NCI-H2122 cells = assay: Proliferation inhibition, CellTiter-Glo, NCI-H2122; settings: Table D-2, NCI-H2122 (KRAS-G12C), 3 days, read-out: Prolif. (proliferation EC50)
# Experimental: (§1) All cancer cell lines (A375, A101D, A2058, RKO, HT29 SK-MEL 30, IPC298, HepG2, HCT-116, Lovo, SW620, SW480, NCI-H358, NCI-H2122, Calu-6, NCIH2087, NCIH1755, NCIH1666 and Mewo) were obtained from ATCC and cultured in RPM1-1640 medium (Gibco) supplemented with 5% heat inactivated fetal bovine serum (FBS, Wisent) at 37° C. under 5% CO2. Cells were maintained in T175 flasks (Greiner). They were passaged by removing the culture medium, washing once in 10 mL of room temperature Phosphate Buffered Saline (PBS; Wisent) and incubating at 37° C. with 2 mL of 0.05% Trypsin (Thermo-Fisher). Trypsin was then inactivated by adding complete growth medium and the cells were then replated in a T175 culture dish at the appropriate dilution. All cell lines were routinely tested for mycoplasma contamination. Tissue type and mutational status of each cell line can be found in Table B.
# (§2) CellTiter-Glo® viability analysis was conducted on cells plated in 100 μL of complete RPMI-1640 growth medium in 96-well flat-bottomed white opaque plates (Greiner or Croning) at a density indicated in Table E (for each CCL, number of cells plated per well of a 96-well plate to perform the CellTiter-Glo® cell viability assay). The cell density in cells/cm^2 would correspond to cell number divided by the area of one well of a 96-well plate (0.32 cm^2). […]
# (§3) After 3 days of incubation, the growth media were removed by aspiration and 60 μL of diluted CellTiter-Glo® reagent (10 μL CellTiter-Glo® reagent+50 μL of PBS) was added to each well. […] Luminescence signals were then acquired on a Synergy Neo2 plate reader (Biotek).
# (§4) The effect of each compound dilution on the proliferation of cancer cell lines was expressed in % inhibition and calculated as follows. […]
# (§5) The ability of each compound to inhibit proliferation was expressed as a EC50 value obtained by plotting the effect values for each data point of a dilution series and fitting the obtained curves using a log(agonist) versus response—variable slope (four parameters) function using GraphPadPrism (V7.0) or Dotmatics Screening Ultra platform.
# A375 cells = assay: Proliferation inhibition, CellTiter-Glo, A375; settings: Table D-1, A375 (BRAF V600E), 3 days, read-out: Prolif. (proliferation EC50)
# Experimental: as §1, §2, §3, §4, §5
# NCIH2087 cells = assay: Proliferation inhibition, CellTiter-Glo, NCIH2087; settings: Table D-2, NCIH2087 (BRAF L597V; KRAS Q61K), 3 days, read-out: Prolif. (proliferation EC50)
# Experimental: as §1, §2, §3, §4, §5
# Mewo cells = assay: Proliferation inhibition, CellTiter-Glo, Mewo; settings: Table D-2, Mewo (NF1 LOF), 3 days, read-out: Prolif. (proliferation EC50)
# Experimental: as §1, §2, §3, §4, §5
# SK-MEL30 cells = assay: Proliferation inhibition, CellTiter-Glo, SK-MEL30; settings: Table D-1, SK-MEL30 (NRAS-Q61K), 3 days, read-out: Prolif. (proliferation EC50)
# Experimental: as §1, §2, §3, §4, §5
# NCIH1755 cells = assay: Proliferation inhibition, CellTiter-Glo, NCIH1755; settings: Table D-2, NCIH1755 (BRAF G469A), 3 days, read-out: Prolif. (proliferation EC50)
# Experimental: as §1, §2, §3, §4, §5
"EC50 (NCI-H2122 cells; Homo sapiens, 72 h)","EC50 (A375 cells; Homo sapiens, A-375, 72 h)","EC50 (SK-MEL30 cells; Homo sapiens, SK-MEL-30, 72 h)",EC50 (NCI-H2122 cells),EC50 (A375 cells),EC50 (SK-MEL30 cells),SMILES,"EC50 (NCIH2087 cells; Homo sapiens, NCI-H2087, 72 h)","EC50 (Mewo cells; Homo sapiens, 72 h)","EC50 (NCIH1755 cells; Homo sapiens, NCI-H1755, 72 h)",EC50 (NCIH2087 cells),EC50 (Mewo cells),EC50 (NCIH1755 cells)
300 to 3000 nM,< 300 nM,< 300 nM,–,–,–,"Cc1ccc2c(Nc3cccc(Cl)c3F)nccc2c1NC(=O)c1csc2c(N)ncnc12 [Belvarafenib, reference compound]",< 300 nM,300 to 3000 nM,> 3000 nM,–,–,–
–,–,–,< 300 nM,< 300 nM,< 300 nM,Cc1c(F)cccc1S(=O)(=O)Nc1ccc(F)c(Nc2ncnc3sc(-n4cc(C(=O)N5C6CCC5CN(C)C6)c5ccccc54)nc23)c1F [Example 44],–,–,–,< 300 nM,< 300 nM,< 300 nM
–,–,–,300 to 3000 nM,< 300 nM,< 300 nM,N#CC1(c2cccc3c2ncn3-c2nc3c(Nc4c(F)ccc(NS(=O)(=O)c5cccc(Cl)c5Cl)c4F)ncnc3s2)CC1 [Example 122],–,–,–,< 300 nM,< 300 nM,< 300 nM
